Results from the supplement of paper PMC11451515.

What was measured:
Conditions in all cases: 48 h
NOMO1 [1] = assay: AUC of viability dose-response curve (% viability x log10 dose units); higher = less sensitive
How it was run: (§1)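 Leukemia cells adapted to each medium were seeded at 500 or 1000 cells/well in 1536-well plates and dosed with library compounds in DMSO at 11 threefold doses from 47 μM to 0.79 nM for 48 h at 37°C. CellTiter-Glo One luminescence was normalised per plate to DMSO and cell-free wells, then fitted with a four-parameter log-logistic model over log10 doses. Area under the curve was taken from this fit by the trapezoidal rule, with curves above full viability scaled and curves failing quality control removed.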

P12-Ichikawa [2] = assay: as above
How it was run: as §1

SEM cells [3] = assay: as above
How it was run: as §1

NOMO1 [4] = assay: cell viability relative to DMSO control; higher = less cytotoxic
How it was run: (§2)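 Library compounds in DMSO were pin-dosed into 1536-well plates (5 μl) holding NOMO1 or SEM (500 cells/well) or P12-Ichikawa (1000 cells/well) leukemia cells, across an 11-point threefold series of 47 μM to 0.79 nM. Each cell line had been adapted for at least four passages in each medium. CellTiter-Glo One luminescence was read after 48 h at 37°C. Viability is the per-plate percentage relative to DMSO wells, with cell-free wells as background.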

P12-Ichikawa [5] = assay: as above
How it was run: as §2

SEM cells [6] = assay: as above
How it was run: as §2

CNC(=O)c1c(F)cccc1Nc1nc(Nc2cc3c(cc2OC)CCN3C(=O)CN(C)C)nc2[nH]ccc12
AUC of viability dose-response curve
Conditions | NOMO1 [1] | P12-Ichikawa [2] | SEM cells [3]
HPLM + 10% dialyzed FBS | 384 | 446 | 269
RPMI 5 mM glucose + 10% FBS | 459 | 463 | 253
RPMI 5 mM glucose + 10% dialyzed FBS | 454 | 454 | 272

cell viability [%]
Conditions | NOMO1 [4] | P12-Ichikawa [5] | SEM cells [6]
HPLM + 10% dialyzed FBS, 0.000781 µM | 89.3 | 91.4 | 84.8
HPLM + 10% dialyzed FBS, 0.00234 µM | 118 | 97 | 92.2
HPLM + 10% dialyzed FBS, 0.00702 µM | 99.9 | 110 | 94.8
HPLM + 10% dialyzed FBS, 0.0211 µM | 122 | 110 | 100
HPLM + 10% dialyzed FBS, 0.0632 µM | 111 | 111 | 83.5
HPLM + 10% dialyzed FBS, 0.19 µM | 88.7 | 109 | 58.3
HPLM + 10% dialyzed FBS, 0.569 µM | 87.2 | 112 | 40.5
HPLM + 10% dialyzed FBS, 1.71 µM | 76.5 | 108 | 31.9
HPLM + 10% dialyzed FBS, 5.12 µM | 58.8 | 81.5 | 22
HPLM + 10% dialyzed FBS, 15.4 µM | 62 | 87.4 | 3.15
HPLM + 10% dialyzed FBS, 46.1 µM | 6.14 | 51 | 1.16
RPMI 5 mM glucose + 10% FBS, 0.000781 µM | 110 | 112 | 90.3
RPMI 5 mM glucose + 10% FBS, 0.00234 µM | 118 | 113 | 90.5
RPMI 5 mM glucose + 10% FBS, 0.00702 µM | 128 | 105 | 83.2
RPMI 5 mM glucose + 10% FBS, 0.0211 µM | 106 | 123 | 97.9
RPMI 5 mM glucose + 10% FBS, 0.0632 µM | 112 | 114 | 88.7
RPMI 5 mM glucose + 10% FBS, 0.19 µM | 117 | 122 | 51
RPMI 5 mM glucose + 10% FBS, 0.569 µM | 115 | 120 | 34.8
RPMI 5 mM glucose + 10% FBS, 1.71 µM | 113 | 110 | 27.3
RPMI 5 mM glucose + 10% FBS, 5.12 µM | 116 | 113 | 13.5
RPMI 5 mM glucose + 10% FBS, 15.4 µM | 117 | 113 | 1.01
RPMI 5 mM glucose + 10% FBS, 46.1 µM | 27.7 | 51.3 | 0.384
RPMI 5 mM glucose + 10% dialyzed FBS, 0.000781 µM | 107 | 110 | 93.6
RPMI 5 mM glucose + 10% dialyzed FBS, 0.00234 µM | 111 | 117 | 96.8
RPMI 5 mM glucose + 10% dialyzed FBS, 0.00702 µM | 105 | 120 | 93.6
RPMI 5 mM glucose + 10% dialyzed FBS, 0.0211 µM | 126 | 119 | 105
RPMI 5 mM glucose + 10% dialyzed FBS, 0.0632 µM | 117 | 129 | 94.7
RPMI 5 mM glucose + 10% dialyzed FBS, 0.19 µM | 112 | 122 | 58.4
RPMI 5 mM glucose + 10% dialyzed FBS, 0.569 µM | 108 | 121 | 32.8
RPMI 5 mM glucose + 10% dialyzed FBS, 1.71 µM | 103 | 118 | 30.2
RPMI 5 mM glucose + 10% dialyzed FBS, 5.12 µM | 99.2 | 110 | 13.4
RPMI 5 mM glucose + 10% dialyzed FBS, 15.4 µM | 102 | 103 | 2.8
RPMI 5 mM glucose + 10% dialyzed FBS, 46.1 µM | 23.6 | 43.6 | 0.739
